biological target: T1, human V1A receptor (Homo sapiens, UniProt P37288); experiment: V1A filter binding assay ([3H]-AVP binding to CHO-hV1A membranes)
T1 construct: expressed in transfected cells; host or cells: CHO cells (CHO-hV1A line provided by Marc Thibonnier, Case Western Reserve University)
Protocol: 1.0 V1A Filter Binding Assay
Receptor binding assays were performed on cellular membranes prepared from CHO cells stably expressing the human V1A receptor, (CHO-hV1A). The CHO-hV1A cell line was kindly provided under a licensing agreement by Marc Thibonnier, Dept. of Medicine, Case Western Reserve University School of Medicine, Cleveland, Ohio. CHO-hV1A cells were routinely maintained at 37° C. in humidified atmosphere with 5% CO2 in DMEM/Hams F12 nutrient mix supplemented with 10% fetal bovine serum, 2 mM L-glutamine, 15 mM HEPES and 400 μg/ml G418. For bulk production of cell pellets, adherent CHO-hV1A cells were grown to confluency of 90-100% in 850 cm^2 roller bottles containing a medium of DMEM/Hams F12 Nutrient Mix supplemented with 10% fetal bovine serum, 2 mM L-glutamine and 15 mM HEPES. Confluent CHO-hV1A cells were washed with phosphate-buffered saline (PBS), harvested into ice cold PBS and centrifuged at 1,000 rpm. Cell pellets were stored at −80° C. until use. Cell pellets were thawed on ice and homogenised in membrane preparation buffer consisting of 50 mM Tris-HCl, pH 7.4, 5 mM MgCl2 and supplemented with a protease inhibitor cocktail, (Roche). The cell homogenate was centrifuged at 1000 rpm, 10 min, 4° C. and the supernatant was removed and stored on ice. The remaining pellet was homogenised and centrifuged as before. The supernatants were pooled and centrifuged at 25,000×g for 30 min at 4° C. […] Protein concentration was determined using Bradford reagent and BSA as a standard.
Protein linearity followed by saturation binding studies were performed on each new batch of membrane. […] Saturation binding studies were then performed using various concentrations of [^3H]-arginine vasopressin, [^3H]-AVP (0.05 nM-100 nM) and the Kd and Bmax determined.
Compounds were tested for their effects on [^3H]-AVP binding to CHO-hV1A membranes, (^3H-AVP; specific activity 65.5 Ci/mmol; NEN Life Sciences). […] The plates were sealed and counted on a TopCount Microplate Scintillation Counter (Packard Instruments). Non-specific binding (NSB) was determined using 1 μM unlabelled d(CH2)5Tyr(Me)AVP ([β-mercapto-β,β-cyclopentamethylenepropionyl, 0-Me-Tyr^2,Arg^8]-vasopressin ) (βMCPVP), (Sigma). The radioligand binding data was analysed using a four parameter logistic equation with the min forced to 0%. […] Specific binding was calculated by subtracting the mean NSB cpm from the mean Total cpm. For test compounds the amount of ligand bound to the receptor was expressed as % bound=(sample cpm−mean NSB cpm)/specific binding cpm×100. […] The inhibitory dissociation constant (Ki) was calculated using the Cheng-Prusoff equation: Ki=IC50/(1+[L]/Kd) where [L] is the concentration of ligand present in the well and Kd is the dissociation constant of the radioligand obtained from Scatchard plot analysis. […]

T1 sequence (P37288 whole entry): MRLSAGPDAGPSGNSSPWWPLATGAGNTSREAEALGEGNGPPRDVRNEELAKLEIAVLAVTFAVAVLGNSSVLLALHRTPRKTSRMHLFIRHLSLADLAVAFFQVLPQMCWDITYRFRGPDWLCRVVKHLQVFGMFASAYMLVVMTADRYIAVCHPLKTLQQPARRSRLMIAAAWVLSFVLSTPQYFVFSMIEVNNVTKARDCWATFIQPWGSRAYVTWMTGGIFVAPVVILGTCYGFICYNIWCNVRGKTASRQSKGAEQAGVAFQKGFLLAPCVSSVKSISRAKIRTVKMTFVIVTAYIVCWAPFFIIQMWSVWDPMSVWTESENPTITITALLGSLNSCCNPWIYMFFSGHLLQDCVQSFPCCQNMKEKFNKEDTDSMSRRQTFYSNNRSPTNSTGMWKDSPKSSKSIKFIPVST

| Ki [nM] | SMILES |
| --- | --- |
| 9.69 | COCc1nnc(N2Cc3ccccc3C2)n1-c1ccc(Cl)cc1 [Example 1, 2-[4-(4-Chlorophenyl)-5-(methoxymethyl)-4H-1,2,4-triazol-3-yl]isoindoline] |
| 6.58 | Cc1nnc(N2CCC3(CC2)OCc2ccccc23)n1-c1ccc(Cl)cc1 [Example 6, 1′-[4-(4-Chlorophenyl)-5-methyl-4H-1,2,4-triazol-3-yl]-3H-spiro[2-benzofuran-1,4′-piperidine]] |
| 0.88 | Clc1ccc(-n2c(Cn3nccn3)nnc2N2Cc3ccccc3C2)cc1 [Example 8, 2-[4-(4-Chlorophenyl)-5-(2H-1,2,3-triazol-2-ylmethyl)-4H-1,2,4-triazol-3-yl]isoindoline] |
| 0.47 | OCc1ccc2c(c1)CN(c1nnc(Cn3nccn3)n1-c1ccc(Cl)cc1)C2 [Example 10, {2-[4-(4-Chlorophenyl)-5-(2H-1,2,3-triazol-2-ylmethyl)-4H-1,2,4-triazol-3-yl]-2,3-dihydro-1H-isoindol-5-yl}methanol] |

Reference: patent US20080234252A1, “Compounds Useful in Therapy” (Pfizer Inc, priority 2005, published 2008)
